{
  "source": "patent US11279733B2",
  "about": "“Peptide antibiotics” (priority 2017, dated 2022)",
  "key": {"[1]": {"test_system": "A. baumannii ATCC 19606", "conditions": "ATCC 19606", "method": "(§1) Bacteria were either obtained from American Type Culture Collection (ATCC; Manassas, Va., USA) or independent academic clinical isolate collections, as listed in Table 18 below. Bacteria were cultured in Nutrient broth (NB; Bacto Laboratories, catalogue No. 234000) or Mueller Hinton broth (MHB; Bacto Laboratories, catalogue No. 211443) at 37° C. overnight with shaking (˜180 RPM). A sample of each culture was then diluted 50-fold in fresh MHB and incubated at 37° C. for 2-3 h with shaking (˜180 RPM). Compound stock solutions were prepared as 0.64 mg/mL or 2.56 mg/mL in water. The compounds, at twice the final desired concentration, were serially diluted 2-fold across the wells of 96-well plates (Polystyrene, Corning, catalogue No. 3370). Mid-log phase bacterial cultures (after 2-3 h incubation) were diluted to a final concentration of 1×10^6 colony forming units (CFU)/mL, and 50 μL was added to each well giving a final cell density of 5×10^5 and a compound concentration range of 32 μg/mL to 0.015 μg/mL (128-0.06 μg/mL against P. aeruginosa PA9704)."}, "[2]": {"test_system": "A. baumannii GN_093 PmxR", "conditions": "GN 093 PmxR", "method": "as §1"}, "[3]": {"test_system": "E. coli ATCC 25922", "conditions": "ATCC 25922", "method": "as §1"}, "[4]": {"test_system": "K. pneumoniae ATCC 13883", "conditions": "ATCC 13883", "method": "as §1"}, "[5]": {"test_system": "K. pneumoniae ATCC 700603, MDR", "conditions": "ATCC 700603", "method": "as §1"}, "[6]": {"test_system": "K. pneumoniae ATCC BAA-2146, NDM-1 pos", "conditions": "ATCC BAA-2146", "method": "as §1"}, "[7]": {"test_system": "K. pneumoniae GN_102 PmxR", "conditions": "GN 102 PmxR", "method": "as §1"}, "[8]": {"test_system": "K. pneumoniae GN_106, PmxR", "conditions": "GN 106, PmxR", "method": "as §1"}, "[9]": {"test_system": "P. aeruginosa ATCC 27853", "conditions": "ATCC 27853", "method": "as §1"}, "[10]": {"test_system": "P. aeruginosa GN_043, PmxR", "method": "as §1"}, "[11]": {"test_system": "P. aeruginosa GN_105, PmxR", "conditions": "GN 105, PmxR", "method": "as §1"}, "[12]": {"test_system": "S. aureus ATCC 25923, MSSA", "conditions": "ATCC 25923", "method": "as §1"}},
  "note": "Read-outs that look alike come from different tables or passages of the source. Positions of bridges follow the written chain, without caps; N, C: chain ends. Non-standard residues stand in square brackets, D forms with d. Residues, ends and D or L forms follow the SMILES beside them. *: point of attachment. Decanoyl(3R-OH) = CCCCCCC[C@@H](O)CC(=O)*; Decanoyl = CCCCCCCCCC(=O)*; dDab = NCC[C@@H](N)C(=O)O; Dab = NCC[C@H](N)C(=O)O",
  "data": [
    {"smiles": "CCCCCCC[C@@H](O)CC(=O)N[C@H](CCN)C(=O)N[C@H]1CCNC(=O)[C@H](CC(C)C)NC(=O)[C@H](CCN)NC(=O)[C@H](CCN)NC(=O)[C@H](Cc2ccccc2)NC(=O)[C@@H](Cc2ccccc2)NC(=O)[C@H](CCN)NC1=O", "note": "[compound 5003, 3(R)OH-nC9CO-D-Dab-cyc[L-Dab-L-Dab-D-Phe-L-Phe-L-Dab-L-Dab-L-Leu]] ({Decanoyl(3R-OH)}-[dDab][Dab][Dab][dF]F[Dab][Dab]L; lactam 2-C)", "values": [
      {"measurement": "MIC A. baumannii ATCC 19606", "setting": "[1]", "result": 16, "unit": "µg/mL"},
      {"measurement": "MIC A. baumannii GN_093 PmxR", "setting": "[2]", "result": 8, "unit": "µg/mL"},
      {"measurement": "MIC E. coli ATCC 25922", "setting": "[3]", "result": 8, "unit": "µg/mL"},
      {"measurement": "MIC K. pneumoniae ATCC 13883", "setting": "[4]", "result": 4, "unit": "µg/mL"},
      {"measurement": "MIC K. pneumoniae ATCC 700603, MDR", "setting": "[5]", "result": 16, "unit": "µg/mL"},
      {"measurement": "MIC K. pneumoniae ATCC BAA-2146, NDM-1 pos", "setting": "[6]", "result": 16, "unit": "µg/mL"},
      {"measurement": "MIC K. pneumoniae GN_102 PmxR", "setting": "[7]", "result": 4, "unit": "µg/mL"},
      {"measurement": "MIC K. pneumoniae GN_106, PmxR", "setting": "[8]", "result": 4, "unit": "µg/mL"},
      {"measurement": "MIC P. aeruginosa ATCC 27853", "setting": "[9]", "result": 2, "unit": "µg/mL"},
      {"measurement": "MIC P. aeruginosa GN_043, PmxR", "setting": "[10]; P. aeruginosa GN_043, PmxR", "result": 2, "unit": "µg/mL"},
      {"measurement": "MIC P. aeruginosa GN_105, PmxR", "setting": "[11]", "result": 2, "unit": "µg/mL"},
      {"measurement": "MIC S. aureus ATCC 25923, MSSA", "setting": "[12]", "result": 8, "unit": "µg/mL"}
    ]},
    {"smiles": "CCCCCCCCCC(=O)N[C@@H](CCN)C(=O)N[C@H]1CCNC(=O)[C@H](CC(C)C)NC(=O)[C@H](CCN)NC(=O)[C@H](CCN)NC(=O)[C@H](CC(C)C)NC(=O)[C@@H](Cc2ccccc2)NC(=O)[C@H](CCN)NC1=O", "note": "[compound 5568, nC9CO-L-Dab-cyc[L-Dab-L-Dab-D-Phe-L-Leu-L-Dab-L-Dab-L-Leu]] (Decanoyl-[Dab][Dab][Dab][dF]L[Dab][Dab]L; lactam 2-C)", "values": [
      {"measurement": "MIC, A. baumannii ATCC 19606", "setting": "[1]", "result": 16, "unit": "µg/mL"},
      {"measurement": "MIC A. baumannii GN_093 PmxR", "setting": "[2]", "result": ">32", "unit": "µg/mL"},
      {"measurement": "MIC, E. coli ATCC 25922", "setting": "[3]", "result": 8, "unit": "µg/mL"},
      {"measurement": "MIC, K. pneumoniae ATCC 13883", "setting": "[4]", "result": 4, "unit": "µg/mL"},
      {"measurement": "MIC, K. pneumoniae ATCC 700603, MDR", "setting": "[5]", "result": 8, "unit": "µg/mL"},
      {"measurement": "MIC, K. pneumoniae ATCC BAA-2146, NDM-1 pos", "setting": "[6]", "result": 8, "unit": "µg/mL"},
      {"measurement": "MIC K. pneumoniae GN_106, PmxR", "setting": "[8]", "result": 16, "unit": "µg/mL"},
      {"measurement": "MIC, P. aeruginosa ATCC 27853", "setting": "[9]", "result": 4, "unit": "µg/mL"},
      {"measurement": "MIC P. aeruginosa GN_043, PmxR", "setting": "[10]; Table 6, polymyxin-resistant", "result": 4, "unit": "µg/mL"},
      {"measurement": "MIC P. aeruginosa GN_105, PmxR", "setting": "[11]", "result": 4, "unit": "µg/mL"},
      {"measurement": "MIC, S. aureus ATCC 25923, MSSA", "setting": "[12]", "result": 8, "unit": "µg/mL"}
    ]},
    {"smiles": "CC(=O)N[C@H](CCN)C(=O)N[C@H]1CCNC(=O)[C@H](Cc2c[nH]c3ccccc23)NC(=O)[C@H](CCN)NC(=O)[C@H](CCN)NC(=O)[C@H](CC(C)C)NC(=O)[C@@H](Cc2ccccc2)NC(=O)[C@H](CCN)NC1=O", "note": "[compound 8981, Ac-D-Dab-cyc[L-Dab-L-Dab-D-Phe-L-Leu-L-Dab-L-Dab-L-Trp]] (Ac-[dDab][Dab][Dab][dF]L[Dab][Dab]W; lactam 2-C)", "values": [
      {"measurement": "MIC A. baumannii ATCC 19606", "setting": "[1]", "result": ">32", "unit": "µg/mL"},
      {"measurement": "MIC A. baumannii GN_093 PmxR", "setting": "[2]", "result": 32, "unit": "µg/mL"},
      {"measurement": "MIC E. coli ATCC 25922", "setting": "[3]", "result": 32, "unit": "µg/mL"},
      {"measurement": "MIC K. pneumoniae ATCC 13883", "setting": "[4]", "result": ">32", "unit": "µg/mL"},
      {"measurement": "MIC K. pneumoniae ATCC 700603, MDR", "setting": "[5]", "result": 16, "unit": "µg/mL"},
      {"measurement": "MIC K. pneumoniae ATCC BAA-2146, NDM-1 pos", "setting": "[6]", "result": 16, "unit": "µg/mL"},
      {"measurement": "MIC K. pneumoniae GN_102 PmxR", "setting": "[7]", "result": ">32", "unit": "µg/mL"},
      {"measurement": "MIC K. pneumoniae GN_106, PmxR", "setting": "[8]", "result": ">32", "unit": "µg/mL"},
      {"measurement": "MIC P. aeruginosa ATCC 27853", "setting": "[9]", "result": 4, "unit": "µg/mL"},
      {"measurement": "MIC P. aeruginosa GN_105, PmxR", "setting": "[11]", "result": ">32", "unit": "µg/mL"},
      {"measurement": "MIC S. aureus ATCC 25923, MSSA", "setting": "[12]", "result": ">32", "unit": "µg/mL"}
    ]}
  ]
}
